Test results taken from publication PMC6764326, “The Trials and Tribulations of Structure Assisted Design of KCa Channel Activators” (Frontiers in Pharmacology, 2019).

Experiments:
KCa3.1 = target: T1, KCa3.1 (Homo sapiens, UniProt O15554+P0DP23); experiment: QPatch automated whole-cell patch-clamp screen, 10 µM activator normalized to 10 µM SKA-31; format: cell-based; settings: for Whole-cell KCa3.1 response elicited by 10 µM of activator normalized to 10 µM SKA-31 (described in words): 250 nM free internal Ca2+, HEK cells stably expressing channel; for Selectivity between KCa3.1 and KCa2.2 in the 10 µM screen: KCa3.1 versus KCa2.2, 250 nM free Ca2+
T1 construct: expressed in transfected cells
Method: (§1) All experiments were performed in either the inside-out or the whole-cell configuration of the patch-clamp technique on either transiently transfected CHO cells or Human Embryonic Kidney (HEK) cell lines stably expressing hKCa3.1 or hKCa2.2 ([Sankaranarayanan et al., 2009]). All cells were cultured in Dulbecco’s modified Eagle’s medium supplemented with 10% fetal calf serum. Wild-type (WT) and mutant hKCa3.1 channel constructs were transfected using FuGENE 6 transfection reagent (Promega, Madison, WI) in OptiMEM reduced-serum medium (Life Technologies, Benicia, CA) for manual patch-clamp experiments or via electroporation (Nucleofector 2b and Lonza Amaxa Cell Line Nucleofector Kit T) according to the manufacturer’s instructions for automated electrophysiology.
(§2) The procedure for performing automated whole-cell KCa channel recordings on a QPatch-16 automated electrophysiology platform (Sophion Biosciences) was previously described in detail by our laboratory ([Jenkins et al., 2013]). For the current study we used the solutions described above with disposable 16-channel planar patch chip plates (QPlates; patch hole diameter […], resistance 2.00–0.02MΩ, Sophion Biosciences, Woburn, MA). Cell positioning and sealing parameters were set as follows: positioning pressure -70 mbar, resistance increase for success 750%, minimum seal resistance 0.1 GΩ, holding potential -0 mV, holding pressure -20 mbar. To avoid rejection of cells with large KCa3.1 currents, the minimum seal resistance for whole-cell requirement was lowered to 0.001 GΩ. Access was obtained with the following sequence: 1) suction pulses in 29 mbar increments from -250 mbar to -453 mbar; 2) a suction ramp of an amplitude of -450 mbar; 3) -400 mV voltage zaps of 1 ms duration. Following establishment of the whole-cell configuration, cells were held at -80 mV and KCa currents elicited by a voltage protocol that held at -80 mV for 20 ms, stepped to -120 mV for 20 ms, ramped from -120 to + 40 mV in 200 ms, and then stepped back to -120 mV for 20 ms. This pulse protocol was applied every 10 s. KCa activator dilutions were prepared freshly (within 5 min of the initiation of the QPatch) with Ringer’s solution from 10 mM stock solutions in dry DMSO. Final DMSO concentrations never exceeded 1%. Glass vial inserts (to avoid adsorption) were filled with 400 µL of compound solution and placed into the insert base plate for use in the QPatch assay. Exemplary QPatch raw current traces and plots of slope conductance versus time are shown in Supplementary Figure 3 . For each compound we typically used 12 consecutive liquid periods Break-in, 3 saline additions to stabilize the current, 2 additions of test compound at 10 µM, 2 saline washes, 2 additions of SKA-31 at 10 µM, followed by 2 more saline washes. In each liquid period 10 pulse protocols were run.
(§3) The newly synthesized compounds were tested by automated whole-cell patch-clamp for their ability to activate KCa2.2 and KCa3.1 channels stably expressed in HEK cells. […] A promising compound would ideally do both. […] We started by comparing the effect of the SKA-74 derivatives to SKA-31 ( Figure 4A ).
(§4) Figure 4 Whole-cell KCa3.1 and KCa2.2 responses elicited by 10 µM of activator and normalized to 10 µM of the mixed activator SKA-31. Experiments were performed by automated electrophysiology with 250 nM of free internal Ca^2+. In each experiment the new activator was tested first, washed out with 2 saline additions, and then SKA-31 was applied as positive control for normalization of the response. (A) Screening of SKA-74 derivatives. (B) Screening of SKA-75 and SKA-76 derivatives. The bar graphs show means ± SD of the slope conductance measured between −85 and −65 mV (n = 2–7 cells). Chemical structures are shown below the bar graphs.
(§5) Figure 5 Whole-cell KCa3.1 and KCa2.2 responses elicited by 10 µM of activator and normalized to 10 µM of the mixed activator SKA-31. […]

KCa2.2 = target: T2, KCa2.2 (Homo sapiens, UniProt P0DP23+Q9H2S1); experiment: as above; format: cell-based; settings: 250 nM free internal Ca2+, HEK cells stably expressing channel
T2 construct: expressed in transfected cells
Method: as §1, §2, §3, §4, §5

## Cc1nc2c(cc(C#N)c3ccccc32)o1 [SKA-135, 2-Methylnaphtho[1,2-d]oxazole-5-carbonitrile]
KCa3.1
  Whole-cell KCa3.1 response elicited by 10 µM of activator normalized to 10 µM SKA-31 (described in words): inactive
KCa2.2
  Whole-cell KCa2.2 response elicited by 10 µM of activator normalized to 10 µM SKA-31 (described in words): inactive
other
  melting point: 145 to 146 °C

## Cc1nccn1-c1cc2sc(N)nc2c2ccccc12 [SKA-344, 5-(2-Methyl-1H-imidazol-1-yl)naphtho[1,2-d]thiazol-2-amine]
other
  melting point: 264 to 265 °C

## Nc1ncc(-c2ccc(-c3ccc(-c4cnc(N)s4)cc3)cc2)s1 [SKA-255, Bis-4,4’-(2-amino-4-thiazolyl)biphenyl]
KCa3.1
  Whole-cell KCa3.1 response elicited by 10 µM of activator normalized to 10 µM SKA-31 (described in words): completely devoid of activity
KCa2.2
  Whole-cell KCa2.2 response elicited by 10 µM of activator normalized to 10 µM SKA-31 (described in words): completely devoid of activity

## CNc1nc2c(cc(C)c3ccccc32)s1 [SKA-204, N,5-Dimethylnaphtho[1,2-d]thiazol-2-amine]
other
  melting point: 172 to 173 °C

## Cc1nc2c(ccc3cccc(N)c32)s1 [SKA-178, 2-Methylnaphtho[1,2-d]thiazol-9-amine]
KCa3.1
  Selectivity between KCa3.1 and KCa2.2 in the 10 µM screen: preserved the selectivity for KCa3.1
other
  melting point: 87 to 88 °C

## 2-Aminonaphtho[1,2-d]oxazole-5-sulfonic acid [SKA-128]
KCa3.1
  Whole-cell KCa3.1 response elicited by 10 µM of activator normalized to 10 µM SKA-31 (described in words): drastically reduced potency
KCa2.2
  Whole-cell KCa2.2 response elicited by 10 µM of activator normalized to 10 µM SKA-31 (described in words): drastically reduced potency

## Cc1cn(-c2cc3sc(N)nc3c3ccccc23)cn1 [SKA-343, 5-(4-Methyl-1H-imidazol-1-yl)naphtho[1,2-d]thiazol-2-amine]
other
  melting point: 269 to 271 °C

## CN(C)c1cc2sc(N)nc2c2ccccc12 [SKA-331, N^5,N^5-Dimethylnaphtho[1,2-d]thiazole-2,5-diamine]
KCa3.1
  Whole-cell KCa3.1 response elicited by 10 µM of activator normalized to 10 µM SKA-31 (described in words): roughly as potent
  Selectivity between KCa3.1 and KCa2.2 in the 10 µM screen: as KCa3.1 selective as SKA-111
other
  melting point: 171 to 174 °C

## Cc1cnn(-c2cc3sc(N)nc3c3ccccc23)c1 [SKA-345, 5-(4-Methyl-1H-pyrazol-1-yl)naphtho[1,2-d]thiazol-2-amine]
other
  melting point: 249 °C

## Cc1nc2c(ccc3cccc([N+](=O)[O-])c32)s1 [SKA-216, 2-Methyl-9-nitronaphtho[1,2-d]thiazole]
KCa3.1
  Selectivity between KCa3.1 and KCa2.2 in the 10 µM screen: preserved the selectivity for KCa3.1
other
  melting point: 151 to 152 °C

## Nc1nc2c(cc(-n3ccnn3)c3ccccc32)s1 [SKA-339, 5-(1H-1,2,3-Triazol-1-yl)naphtho[1,2-d]thiazol-2-amine]
other
  melting point: 208 °C

## CCCc1cc2sc(N)nc2c2ccccc12 [SKA-307, 5-Propylnaphtho[1,2-d]thiazol-2-amine]
KCa3.1
  Whole-cell KCa3.1 response elicited by 10 µM of activator normalized to 10 µM SKA-31 (described in words): roughly as potent
  Selectivity between KCa3.1 and KCa2.2 in the 10 µM screen: as KCa3.1 selective as SKA-111
other
  melting point: 147 to 150 °C

## Nc1nc2cc3ccccc3cc2o1 [SKA-134, Naphtho[2,3-d]oxazol-2-amine]
other
  melting point: 247 to 248 °C

## Nc1nc(-c2ccc(-c3ccccc3)cc2)cs1 [SKA-232, 4-Biphenyl-4-yl-thiazol-2-ylamine]
KCa3.1
  Whole-cell KCa3.1 response elicited by 10 µM of activator normalized to 10 µM SKA-31 (described in words): completely devoid of activity
KCa2.2
  Whole-cell KCa2.2 response elicited by 10 µM of activator normalized to 10 µM SKA-31 (described in words): completely devoid of activity

## Nc1nc2c(cc(-c3ccccc3)c3ccccc32)s1 [SKA-326, 5-Phenylnaphtho[1,2-d]thiazol-2-amine]
other
  melting point: 177 to 178 °C

## CCc1cc2sc(N)nc2c2ccccc12 [SKA-306, 5-Ethylnaphtho[1,2-d]thiazol-2-amine]
KCa3.1
  Whole-cell KCa3.1 response elicited by 10 µM of activator normalized to 10 µM SKA-31 (described in words): roughly as potent
  Selectivity between KCa3.1 and KCa2.2 in the 10 µM screen: as KCa3.1 selective as SKA-111
other
  melting point: 144 to 145 °C

## Nc1nc2c(cc(-n3ccc(C(F)(F)F)n3)c3ccccc32)s1 [SKA-341, 5-(3-(Trifluoromethyl)-1H-pyrazol-1-yl)naphtho[1,2-d]thiazol-2-amine]
other
  melting point: 206 to 207 °C

## Cc1ccn(-c2cc3sc(N)nc3c3ccccc23)n1 [SKA-340, 5-(3-Methyl-1H-pyrazol-1-yl)naphtho[1,2-d]thiazol-2-amine]
other
  melting point: 189 to 190 °C

## 5,6-Dinitronaphtho[1,2-d]thiazol-2-amine [SKA-218]
KCa3.1
  Selectivity between KCa3.1 and KCa2.2 in the 10 µM screen: preserved the selectivity for KCa3.1

## Nc1nc(-c2ccc3ccccc3c2)c(Br)s1 [SKA-220, 5-Bromo-4-(naphthalen-2-yl)thiazol-2-amine]
KCa3.1
  Whole-cell KCa3.1 response elicited by 10 µM of activator normalized to 10 µM SKA-31 (described in words): somewhat increased KCa channel activating potency
KCa2.2
  Whole-cell KCa2.2 response elicited by 10 µM of activator normalized to 10 µM SKA-31 (described in words): somewhat increased KCa channel activating potency

## Nc1nc2c(cc(-n3ccnc3)c3ccccc32)s1 [SKA-334, 5-(1H-Imidazol-1-yl)naphtho[1,2-d]thiazol-2-amine]
other
  melting point: 272 to 275 °C

## c1ccc2c(c1)ccc1sc(NC3CCCCC3)nc12 [SKA-165, N-Cyclohexylnaphtho[1,2-d]thiazol-2-amine]
KCa3.1
  Whole-cell KCa3.1 response elicited by 10 µM of activator normalized to 10 µM SKA-31 (described in words): completely eliminated activity
KCa2.2
  Whole-cell KCa2.2 response elicited by 10 µM of activator normalized to 10 µM SKA-31 (described in words): completely eliminated activity

## Nc1nc2c(cc(-n3cncn3)c3ccccc32)s1 [SKA-347, 5-(1H-1,2,4-Triazol-1-yl)naphtho[1,2-d]thiazol-2-amine]
other
  melting point: 273 °C

## Nc1nc2c(cc(-n3cccn3)c3ccccc32)s1 [SKA-335, 5-(1H-Pyrazol-1-yl)naphtho[1,2-d]thiazol-2-amine]
other
  melting point: 226 to 227 °C

## Cc1nc2c(cc(Cl)c3ccccc32)s1 [SKA-130, 5-Chloro-2-methylnaphtho[1,2-d]thiazole]
KCa3.1
  Selectivity between KCa3.1 and KCa2.2 in the 10 µM screen: preserved selectivity for KCa3.1
KCa2.2
  Whole-cell KCa2.2 response elicited by 10 µM of activator normalized to 10 µM SKA-31 (described in words): decreased activity

## CC(C)c1cc2sc(N)nc2c2ccccc12 [SKA-308, 5-Isopropylnaphtho[1,2-d]thiazol-2-amine]
KCa3.1
  Whole-cell KCa3.1 response elicited by 10 µM of activator normalized to 10 µM SKA-31 (described in words): roughly as potent
  Selectivity between KCa3.1 and KCa2.2 in the 10 µM screen: as KCa3.1 selective as SKA-111
other
  melting point: 179 to 181 °C

## Cc1nc2c(ccc3c(N)cccc32)s1 [SKA-172, 2-Methylnaphtho[1,2-d]thiazol-6-amine]
KCa3.1
  Selectivity between KCa3.1 and KCa2.2 in the 10 µM screen: preserved the selectivity for KCa3.1

## c1ccc(-c2csc(Nc3ccccn3)n2)cc1 [SKA-265, 4-Phenyl-N-(pyridin-2-yl)thiazol-2-amine]
KCa3.1
  Whole-cell KCa3.1 response elicited by 10 µM of activator normalized to 10 µM SKA-31 (described in words): completely devoid of activity
KCa2.2
  Whole-cell KCa2.2 response elicited by 10 µM of activator normalized to 10 µM SKA-31 (described in words): completely devoid of activity

## Cc1ccc(-c2csc(N)n2)c2ccccc12 [SKA-190, 4-(4-Methylnaphthalen-1-yl)thiazol-2-amine]
KCa3.1
  Whole-cell KCa3.1 response elicited by 10 µM of activator normalized to 10 µM SKA-31 (described in words): somewhat increased KCa channel activating potency
KCa2.2
  Whole-cell KCa2.2 response elicited by 10 µM of activator normalized to 10 µM SKA-31 (described in words): somewhat increased KCa channel activating potency

## Cc1nc2c(cc(Br)c3ccccc32)s1 [SKA-132, 5-Bromo-2-methylnaphtho[1,2-d]thiazole]
KCa3.1
  Selectivity between KCa3.1 and KCa2.2 in the 10 µM screen: preserved selectivity for KCa3.1
KCa2.2
  Whole-cell KCa2.2 response elicited by 10 µM of activator normalized to 10 µM SKA-31 (described in words): decreased activity
